Ends that are not written are not given here.

The conditions of assay [1]: 17- versus 19-substituted herbimycin derivative; cited from earlier work.
The target in assay [2] is T1, gp96 in the presence of herbimycin A (Mus musculus, UniProt P08113).
T1 construct: mouse cDNA encoding mature gp96 (i.e., wherein the endoplasmic reticulum signal peptide has been removed); made in house; host or cells: Escherichia coli BL21 (pET 11a)
Description: Phage display affinity panning on gp96 in the presence of herbimycin A. The format is binding. The conditions noted are these: 20 mM HEPES pH 7.5, 100 mM KCl, 25 mM CaCl2, 5 mM MgAcetate, TWEEN-20; herbimycin A present. The protocol: Preparation of a gp96 expression vector. The mouse cDNA encoding mature gp96 (i.e., wherein the endoplasmic reticulum signal peptide has been removed) was incorporated into the pET 11a expression vector (Novagen) as follows. Gp96 cDNA insert was prepared by polymerase chain reaction (PCR) of a pRc/CMV clone containing the cDNA using the following oligonucleotide primers: […]
Expression of gp96. pET11 gp96 was transformed into BL21 Escherichia coli cells, and plated on LB plates containing ampicillin (50μg/ml). One of the resulting colonies was used to inoculate a 20 ml overnight culture of 2×TY medium containing ampicillin (150 μg/ml). The following day, the resulting culture was spun down and the harvested bacteria were resuspended in 1 ml of fresh medium. Two one liter cultures were then each inoculated with 0.5 ml of the harvested cells and allowed to grow at 37° C. until the optical density, measured at 600 nm, was 0.5. Then, IPTG was added to a concentration of 1 mM and the cells were cultured for another 3 hours before being harvested by centrifugation. The resulting cell pellet was resuspended in 20 ml of 50 mM HEPES pH 7.5, 50 mM KCl, 5 mM MgAcetate, 20% sucrose and 1 mM PMSF. Cell extracts were prepared by pressure shearing in a French Press. The lysates were then spun at 100,000×g for 1.5 hours and the supernatant, which constituted crude gp96 extract, was collected. […]

Assay [3] relates to EG7 cells. The assay can be described thus: EG7 tumor cell challenge after immunization. The class given is in vivo, C57BL/6 mice. Particulars: for tumor-free animals: eight mice per group. The protocol:
C57BL/6 mice, 8-10 weeks old, were immunized intradermally with one of the following (eight mice in each group): (a)5 μl TiterMax and 5 μg OVA peptide; (b) 15 μg hsp70 and 5 μg OVA peptide; (c) 5 μl TiterMax and […] (OVA-BiP); (d) 15 μg hsp70 and 12 μg OVA-BiP; (e) control (four animals only in this group); (f) 5 μg OVA peptide; or (g) 12 μg OVA-BiP. The mice then were injected with 4×10^6 EG7 cells. Tumor size was evaluated over time by measuring two diameters, the greatest diameter and the diameter perpendicular to the greatest diameter, and then calculating the average diameter. The results are shown in FIG. 8A-G (corresponding to groups a-g, as set forth above).

In assay [4] the test system is OVA-primed EL-4 target cells. Description: 51Cr release assay with effector cells from immunized mice. The class given is in vivo, C57BL/6 mice. Particulars: mice immunized once or twice. The protocol: Preparation of hsp70 and/or peptide for use in immunization. Approximately 15 μg hsp70 and 12 μg OVA-BiP were mixed, on ice, to a final volume of 10 μL in Buffer Y (to produce a final concentration of 21.5 μM hsp70, 0.5 mM OVA-BiP, 20 mM HEPES pH 7.0, 150 mM KCl, 10 mM (NH4)2SO4, 2 mM MgCl2 and 2 mM MgADP, pH 7.0). The mixture was incubated for 30 minutes at 37° C. and was used for in vivo immunizations. Similar incubations were carried out with (i) 5 μl TiterMax adjuvant (Vaxcell, Norcross, Ga.) and 12 μg OVA-BiP (ii) 5 μl TiterMax and 5 μg OVA peptide or (iii) 12 μg OVA-BiP alone.
Preparation of cells for chromium release assay. […]
Chromium release assay. […] Supernatants were harvested and radioactivitiy released by cytotoxic activity was measured in a gamma counter. The percent specific lysis was calculated as 100×[(cpm release by CTL-cpm spontaneously released)/(cpm maximal release-cpm spontaneously released)]. Maximal release was determined by adding 1% NP-40 to lyse all cells. Spontaneous release of all target in the absence of effector cells (measured in a culture of target cells (in the absence of effector cells) maintained in parallel for the duration of the assay) was less than 20% of the maximal release.

The mark [5] stands for this setting: peptide alone (without TiterMax or hsp70).

T1 sequence (P08113 22-802): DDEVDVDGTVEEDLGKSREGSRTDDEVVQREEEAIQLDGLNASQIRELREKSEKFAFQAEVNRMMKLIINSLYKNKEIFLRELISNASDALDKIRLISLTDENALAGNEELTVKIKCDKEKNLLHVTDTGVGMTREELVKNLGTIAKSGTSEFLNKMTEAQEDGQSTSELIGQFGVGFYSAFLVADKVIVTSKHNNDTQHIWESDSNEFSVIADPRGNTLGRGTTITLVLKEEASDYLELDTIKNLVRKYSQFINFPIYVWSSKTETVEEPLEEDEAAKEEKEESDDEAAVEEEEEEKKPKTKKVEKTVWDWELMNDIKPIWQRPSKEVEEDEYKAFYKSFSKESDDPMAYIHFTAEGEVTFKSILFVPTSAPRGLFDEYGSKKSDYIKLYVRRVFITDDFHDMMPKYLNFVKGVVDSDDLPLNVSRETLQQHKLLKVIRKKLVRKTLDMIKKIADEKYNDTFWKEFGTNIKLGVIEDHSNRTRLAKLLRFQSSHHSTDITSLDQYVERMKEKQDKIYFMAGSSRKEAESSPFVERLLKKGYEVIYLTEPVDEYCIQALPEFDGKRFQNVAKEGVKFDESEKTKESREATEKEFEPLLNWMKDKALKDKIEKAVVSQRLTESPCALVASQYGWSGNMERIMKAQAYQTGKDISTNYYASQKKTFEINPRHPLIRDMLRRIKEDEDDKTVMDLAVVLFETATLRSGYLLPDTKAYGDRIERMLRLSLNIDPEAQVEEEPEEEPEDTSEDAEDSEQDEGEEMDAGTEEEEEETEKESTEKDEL

In the case of 17-allylamino herbimycin, the relative activity result in assay [1] is “more active than 19-allylamino herbimycin”.

As to “Phe-His-Trp-Trp-Trp (FHWWW; printed: Phe-His-Trp-Trp-Trp) [SEQ ID NO:320]”, in assay [2], the “binding of phage-expressed peptides to gp96” value is on record as “appeared to be favored”.

Take SIINFEKLGSGHWDFAWPW [OVA-BiP]: the “tumor diameter and detectable tumor formation” value in assay [3] (peptide administered with TiterMax adjuvant) was “superior to OVA peptide (FIG. 8A) in reducing tumor diameter and in preventing detectable tumor formation altogether”. The average tumor diameters result in assay [3] (peptide alone (without TiterMax or hsp70), compared with OVA-peptide alone) is “average tumor diameters were smaller”. Further, the tumor-free animals in assay [3] (setting [5]) was 2/8. The “OVA-specific cytotoxic immune response (killing of OVA-primed EL-4 target cells)” value in assay [4] is “significant anti-OVA immune response”.

In the case of “Ser Ile Ile Asn Phe Glu Lys Leu (SIINFEKL; printed: Ser Ile Ile Asn Phe Glu Lys Leu) [OVA-peptide, reference compound]”, the tumor-free animals entry in assay [3] (setting [5]) is “no animals were tumor-free”.

The record behind these values is US20030166530A1, “Conjugate heat shock protein-binding peptides” (priority 1997, published 2003).
